What was measured:
Assay type in all cases: cell-based
[1] = tested on: MV-4-11 (carrying MLL-AF4); test: Inhibition of proliferation of human tumor cells (Alamar Blue, 7 days), MV-4-11; details: Homo sapiens, MV4-11, 168 h, MV-4-11 cells (carrying MLL-AF4), method calls the value GI50
How it was run: (§1)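 Suspension cells were plated, dosed the same day with a graded compound series, and incubated seven days at 37°C under 5% CO2. Growth was then measured by Alamar Blue fluorescence, and the concentration halving proliferation (GI50) was calculated relative to Day 0 and Day 7 vehicle controls.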

KG-1a (wild-type MLL) = test: Inhibition of proliferation of human tumor cells (Alamar Blue, 7 days), KG-1a control cell line; details: 168 h, KG-1a cells (wild-type MLL, control cell line), method calls the value GI50
How it was run: as §1

MEIS1 gene expression = test: Inhibition of MEIS1 gene expression in human tumor cells (qRT-PCR), OCI-AML3; details: OCI-AML-3, OCI-AML3 (carrying NPM1c), 48 hours of incubation, relative MEIS1 gene expression vs GAPDH
From the text: Experimental Example 3: Evaluation of Inhibitory Activity of Compounds Against MEISI Gene Expression in Human Tumor Cells
The effect of test samples on MEIS1 gene expression in vitro cultured human leukemia cells MV-4-11 (carrying MLL-AF4), MOLM-13 (carrying MLL-AF9), and OCI-AML3 (carrying NPM1c) was studied.
• Human acute lymphoblastic leukemia cells MV-4-11, purchased from American Type Culture Collection, Catalog Number: CRL-9591; • Human acute myeloid leukemia cells MOLM-13, purchased from COBIOER BIOSCIENCES CO., LTD, Catalog Number: CBP60678; • Human acute myeloid leukemia cells OCI-AML3, purchased from COBIOER BIOSCIENCES CO., LTD, Catalog Number: CBP60817; • MEIS1 Primer/Probe, purchased from IDT, Catalog Number: 40831613; and • GAPDH Primer/Probe, purchased from IDT, Catalog Number: 22214836.
MV-4-11 cells were cultured in an IMDM medium containing 10% fetal bovine serum, or MOLM-13 and OCI-AML3 cells were cultured in an RPMI-1640 medium containing 20% fetal bovine serum, each supplemented with 100 U·mL^-1 penicillin and 100 µg·mL^-1 streptomycin. These cells were cultured at 37°C with 5% CO2. The suspensions of individual cell lines were prepared in their respective media and seeded into 48-well plates at a density of 100,000 cells/well. On the day of the experiment, a compound stock solution was diluted in a 6-fold gradient using DMSO. Each gradient-diluted stock solution was then further diluted 250-fold with a complete medium to prepare a series of working solutions at different concentrations. Next, 250 µL of working solution (containing the complete medium with a 2-fold serial concentration of the test compound or a positive control compound, or containing a control complete medium) was added to each well. After 48 hours of incubation, cells from the 48-well plate were collected into 1 mL centrifuge tubes, centrifuged at 1000 rpm for 5 minutes, and the complete medium was removed. Cells were washed twice with 1 mL PBS and centrifuged to remove PBS. Total RNA was extracted using the RNeasy Mini Kit (250) (QIAGEN, 74106). The threshold cycle (Ct) value for gene expression was determined using the HiScript II U+ One Step qRT-PCR Probe Kit (Vazyme) (Vazyme, Q223-01), with 3 replicates per sample. The prepared reaction mixture was placed in an ABI 7500 real-time PCR instrument, and the reaction proceeded following the procedures below. [formula]
Next, for the relative MEIS1 gene expression, the concentration (EC50) that inhibits 50% of relative MEIS1 gene expression was calculated using GraphPad Prism 8 software.

Cc1nc(F)c2c(-c3ccc(F)cc3C(=O)N3CCOC[C@H]3C)cc(C3CN([C@H](CN4CCN(C)CC4)C(C)C)C3)cn12 [Example 368-2, (3R)-4-[5-fluoro-2-(1-fluoro-3-methyl-6-{1-[(2S)-3-methyl-1-(4-methylpiperazin-1-yl)butan-2-yl]azacyclobutan-3-yl}imidazo[1,5-a]pyridin-8-yl)benzoyl]-3-methylmorpholine]
IC50 [1]: 0.005 µM | IC50 (KG-1a (wild-type MLL)): 13 µM | EC50 (MEIS1 gene expression): 0.017 µM

CC(=O)N1CCN(CCC[C@H](C(C)C)N2CC(c3cc(-c4ccc(F)cc4C(=O)N4CCOC[C@H]4C)c4c(F)nc(C)n4c3)C2)CC1 [Example 265]
IC50 [1]: 0.0086 µM | IC50 (KG-1a (wild-type MLL)): 20 µM | EC50 (MEIS1 gene expression): 0.07 µM

COCCN(C)CCC[C@H](C(C)C)N1CC(c2cc(-c3ccc(F)cc3C(=O)N3CCOC[C@H]3C)c3c(F)nc(C)n3c2)C1 [Example 200-1]
IC50 [1]: 0.0032 µM | IC50 (KG-1a (wild-type MLL)): 20 µM | EC50 (MEIS1 gene expression): 0.013 µM

CCN1CCN(CCC[C@H](C(C)C)N2CC(c3cc(-c4ccc(F)cc4C(=O)N4CCOC[C@H]4C)c4cnc(C)n4c3)C2)CC1 [Example 324-2]
IC50 [1]: 0.0013 µM | EC50 (MEIS1 gene expression): 0.0095 µM

CCN(C(=O)c1cc(F)ccc1-c1cc(C2CN([C@H](CCCN3CCN(CCO)CC3)C(C)C)C2)cn2c(C)ncc12)C(C)C [Example 398, N-ethyl-5-fluoro-2-(6-{1-[(3R)-6-[4-(2-hydroxyethyl)piperazin-1-yl]-2-methylhexan-3-yl]azacyclobutan-3-yl}-3-methylimidazo[1,5-a]pyridin-8-yl)-N-(isopropyl)benzamide]
IC50 [1]: 0.0011 µM | IC50 (KG-1a (wild-type MLL)): > 20 µM | EC50 (MEIS1 gene expression): 0.013 µM

Cc1nc(F)c2c(-c3ccc(F)cc3C(=O)N3CCOC[C@H]3C)cc(C3CN([C@H](CCCN4C[C@H]5C[C@@H]4CO5)C(C)C)C3)cn12 [Example 353, (1R,4R)-5-[(4R)-4-[3-(1-fluoro-8-{4-fluoro-2-[(3R)-3-methylmorpholin-4-carbonyl]phenyl}-3-methylimidazo[1,5-a]pyridin-6-yl)azacyclobutan-1-yl]-5-methylhexyl]-2-oxa-5-azabicyclo[2.2.1]heptane]
IC50 [1]: 0.0041 µM | IC50 (KG-1a (wild-type MLL)): > 20 µM | EC50 (MEIS1 gene expression): 0.021 µM

CCN(C(=O)c1cc(F)ccc1-c1cc(C2CN([C@H](CCCN3C[C@H]4C[C@@H]3CO4)C(C)C)C2)cn2c(C)ncc12)C(C)C [Example 379, N-ethyl-5-fluoro-2-(3-methyl-6-{1-[(3R)-2-methyl-6-[(1R,4R)-2-oxa-5-azabicyclo[2.2.1]heptan-5-yl]hexan-3-yl]azacyclobutan-3-yl}imidazo[1,5-a]pyridin-8-yl)-N-(isopropyl)benzamide]
IC50 [1]: 0.0004 µM | IC50 (KG-1a (wild-type MLL)): 11.5 µM | EC50 (MEIS1 gene expression): 0.0075 µM

Cc1nc(F)c2c(-c3ccc(F)cc3C(=O)N3CCOC[C@H]3C)cc(C3CN([C@H](CCCN4CCC[C@H](O)C4)C(C)C)C3)cn12 [Example 293]
IC50 [1]: 0.002 µM | IC50 (KG-1a (wild-type MLL)): 20 µM | EC50 (MEIS1 gene expression): 0.031 µM

COC1CCN(CCCC(C(C)C)N2CC(c3cc(-c4ccc(F)cc4C(=O)N4CCOCC4C)c4c(F)nc(C)n4c3)C2)C1 (centres unmarked) [Example 201-1]
IC50 [1]: 0.0024 µM | IC50 (KG-1a (wild-type MLL)): 20 µM | EC50 (MEIS1 gene expression): 0.0024 µM

CC(=O)N1CCC([C@H](C)N2CC(c3cc(-c4ccc(F)cc4C(=O)N4CCOC[C@H]4C)c4c(F)nc(C)n4c3)C2)CC1 [Example 257-2, 1-{4-[(1S)-1-[3-(1-fluoro-8-{4-fluoro-2-[(3R)-3-methylmorpholin-4-carbonyl]phenyl}-3-methylimidazo[1,5-a]pyridin-6-yl)azacyclobutan-1-yl]ethyl]piperidin-1-yl}ethan-1-one]
IC50 [1]: 0.017 µM | IC50 (KG-1a (wild-type MLL)): 20 µM | EC50 (MEIS1 gene expression): 0.033 µM

COC1CCN(CCC[C@H](C(C)C)N2CC(c3cc(-c4ccc(F)cc4C(=O)N4CCOC[C@H]4C)c4c(F)nc(C)n4c3)C2)CC1 [Example 204, (3R)-4-[5-fluoro-2-(1-fluoro-6-{1-[(3R)-6-(4-methoxypiperidin-1-yl)-2-methylhexan-3-yl]azacyclobutan-3-yl}-3-methylimidazo[1,5-a]pyridin-8-yl)benzoyl]-3-methylmorpholine]
IC50 [1]: 0.0028 µM | IC50 (KG-1a (wild-type MLL)): 18 µM | EC50 (MEIS1 gene expression): 0.013 µM

Cc1nc(F)c2c(-c3ccc(F)cc3C(=O)N3CCOC[C@H]3C)cc(C3CN([C@H](CCCN4CCN(C)CC4)C(C)C)C3)cn12 [Example 275, (3R)-4-[5-fluoro-2-(1-fluoro-3-methyl-6-{1-[(3R)-2-methyl-6-(4-methylpiperazin-1-yl)hexan-3-yl]azacyclobutan-3-yl}imidazo[1,5-a]pyridin-8-yl)benzoyl]-3-methylmorpholine]
IC50 [1]: 0.0026 µM | IC50 (KG-1a (wild-type MLL)): 20 µM | EC50 (MEIS1 gene expression): 0.016 µM

Cc1nc(F)c2c(-c3ccc(F)cc3C(=O)N3CCOC[C@H]3C)cc(C3CN([C@H](CO[C@H]4CCCN(C)C4)C(C)C)C3)cn12 [Example 321-2, (3R)-4-[5-fluoro-2-(1-fluoro-3-methyl-6-{1-[(2S)-3-methyl-1-{[(3S)-1-methylpiperidin-3-yl]oxy}butan-2-yl]azacyclobutan-3-yl}imidazo[1,5-a]pyridin-8yl)benzoyl]-3-methylmorpholine]
IC50 [1]: 0.0026 µM | EC50 (MEIS1 gene expression): 0.032 µM

CC[C@@H](C1CCN(C(C)=O)CC1)N1CC(c2cc(-c3ccc(F)cc3C(=O)N3CCOC[C@H]3C)c3c(F)nc(C)n3c2)C1 [Example 280-1, 1-{4-[(1S)-1-[3-(1-fluoro-8-{4-fluoro-2-[(3R)-3-methylmorpholin-4-carbonyl]phenyl}-3-methylimidazo[1,5-a]pyridin-6-yl)azacyclobutan-1-yl]propyl]piperidin-1-yl}ethan-1-one]
IC50 [1]: 0.0069 µM | EC50 (MEIS1 gene expression): 0.034 µM

CCN(C(=O)c1cc(F)ccc1-c1cc(C2CN([C@H](CN3CCN(CCO)CC3)C(C)C)C2)cn2c(C)ncc12)C(C)C [Example 431, N-ethyl-5-fluoro-2-(6-{1-[(2S)-1-[4-(2-hydroxylethyl)piperazin-1-yl]-3-methylbutan-2-yl]azacyclobutan-3-yl}-3methylimidazo[1,5-a]pyridin-8-yl)-N-(isopropyl)benzamide]
IC50 [1]: 0.0047 µM | EC50 (MEIS1 gene expression): 0.033 µM

CCN1CCN(CCC[C@H](C(C)C)N2CC(c3cc(-c4ccc(F)cc4C(=O)N4CCOC[C@H]4C)c4c(F)nc(C)n4c3)C2)CC1 [Example 277]
IC50 [1]: 0.0016 µM | IC50 (KG-1a (wild-type MLL)): 20 µM | EC50 (MEIS1 gene expression): 0.012 µM

Source: patent publication EP4782453A1 (Beyang Therapeutics Co., Ltd., priority 2023, dated 2025)
